Earlier results on 1 compound are cited in publication PMC4914392 (Bioorganic & medicinal chemistry, 2016).

Structures are written as SMILES.

The conditions of the data set: ref [17].

Regarding `Nc1nccc2c1nnn2[C@@H]1O[C@H](CO)[C@@H](O)[C@H]1O` [Compound 4, 8-aza-3-deazaadenosine], the “Fluorescence emission λmax (H2O)” value is 430 nm and the “Stokes shift (H2O)” value was 140 nm.
